Measurements reported in ChEMBL document CHEMBL1641527, “Design and synthesis of aryl ether and sulfone hydroxamic acids as potent histone deacetylase (HDAC) inhibitors” (Bioorg Med Chem Lett, 2011).

Experiment: Inhibition of HDAC by [3H]acetate-radiolabelled peptide substrate assay with scintillation counting

IC50 [nM]	SMILES
> 1000	CC(/C=C/C(=O)O)=C\C(C)Oc1cccc(Cl)c1 (stereo not drawn)
> 1000	CC(/C=C/C(=O)O)=C\COc1cccc(-c2ccccc2)c1
> 1000	CCCCCCOc1ccc(OC(C)/C=C(C)/C=C/C(=O)O)cc1 (stereo not drawn)
> 1000	CC(/C=C/C(=O)O)=C\COc1cccc2c1CCCC2
890	CC(/C=C/C(=O)NO)=C\COc1ccc(Br)cc1Br
41	CC(/C=C/C(=O)NO)=C\COc1cccc(-c2ccccc2)c1
68	COc1ccc(OC/C=C(C)/C=C/C(=O)NO)cc1
> 1000	CC(/C=C/C(=O)O)=C\C(C)S(=O)(=O)c1ccc(Br)cc1 (stereo not drawn)
> 1000	CC(/C=C/C(=O)O)=C\C(C)S(=O)(=O)c1ccc(Cl)cc1 (stereo not drawn)
> 1000	CC(/C=C/C(=O)NO)=C\C(C)S(=O)(=O)c1ccc(Br)cc1 (stereo not drawn)
> 1000	CC(/C=C/C(=O)NO)=C\C(C)S(=O)(=O)c1ccc(C)cc1 (stereo not drawn)
> 1000	COc1cccc(S(=O)(=O)C(C)/C=C(C)/C=C/C(=O)NO)c1 (stereo not drawn)

Second part, the molecule before the results:

SMILES	IC50 [nM]
CC(/C=C/C(=O)O)=C\C(C)Oc1ccc(Br)cc1Br (stereo not drawn)	> 1000
CC(/C=C/C(=O)O)=C\C(C)Oc1cccc(-c2ccccc2)c1 (stereo not drawn)	> 1000
CC(/C=C/C(=O)O)=C\C(C)Oc1cccc(Cc2ccccc2)c1 (stereo not drawn)	> 50000
COc1ccc(OC/C=C(C)/C=C/C(=O)O)cc1	> 1000
CC(/C=C/C(=O)O)=C\C(C)Oc1cccc(C(F)(F)F)c1 (stereo not drawn)	> 50000
CC(/C=C/C(=O)O)=C\C(C)Oc1cccc2c1CCCC2 (stereo not drawn)	> 50000
CC(/C=C/C(=O)O)=C\COc1ccc(C(C)C)cc1	> 1000
CC(/C=C/C(=O)O)=C\C(C)Oc1ccc(C(C)C)cc1 (stereo not drawn)	> 50000
CC(/C=C/C(=O)NO)=C\COc1cccc(Cl)c1	188
CC(/C=C/C(=O)NO)=C\C(C)Oc1cccc(-c2ccccc2)c1 (stereo not drawn)	55
CC(/C=C/C(=O)NO)=C\COc1cccc(Cc2ccccc2)c1	1200
CC(/C=C/C(=O)NO)=C\COc1cccc(C(F)(F)F)c1	18
COc1ccc2ccc(OC/C=C(C)/C=C/C(=O)NO)cc2c1	20
CCCCCCOc1ccc(OC(C)/C=C(C)/C=C/C(=O)NO)cc1 (stereo not drawn)	1100
CC(/C=C/C(=O)NO)=C\C(C)Oc1ccc(-c2ccc(Br)cc2)cc1 (stereo not drawn)	162
CC(=O)c1ccc(OC(C)/C=C(C)/C=C/C(=O)NO)cc1 (stereo not drawn)	> 50000
CC(/C=C/C(=O)O)=C\C(C)S(=O)(=O)c1ccc(F)cc1 (stereo not drawn)	> 1000
CC(/C=C/C(=O)O)=C\C(C)S(=O)(=O)c1ccc(C)c(C)c1 (stereo not drawn)	> 1000
CC(/C=C/C(=O)O)=C\C(C)S(=O)(=O)c1ccc(C)cc1C (stereo not drawn)	> 1000
COc1ccc(S(=O)(=O)C(C)/C=C(C)/C=C/C(=O)NO)cc1 (stereo not drawn)	> 1000
CC(=O)Nc1ccc(S(=O)(=O)C(C)/C=C(C)/C=C/C(=O)NO)cc1 (stereo not drawn)	> 1000
CC(/C=C/C(=O)NO)=C\C(C)S(=O)(=O)c1ccc(Cl)c(Cl)c1 (stereo not drawn)	> 1000
CC(/C=C/C(=O)NO)=C\C(C)S(=O)(=O)c1cnc2cc(C)ccc2c1 (stereo not drawn)	> 1000
CC(/C=C/C(=O)NO)=C\C(C)S(=O)(=O)c1cn(C)cn1 (stereo not drawn)	> 1000
CC(/C=C/C(=O)NO)=C\C(C)S(=O)(=O)c1nc(C)cc(C)n1 (stereo not drawn)	> 1000
CC(/C=C/C(=O)NO)=C\[C@@H](C)C(=O)c1ccc(N(C)C)cc1 [TRICHOSTATIN]	3
